Earlier results in patent publication US12201725B2, “Dry powder compositions of treprostinil prodrugs and methods of use thereof” (Insmed Incorporated, priority 2019, dated 2025).
Read-outs that look alike come from different tables or passages of the source.

What was measured:
[1] = guinea pigs, comparison, not tested in Example 6
[2] = test system: hypoxia-induced increase in right ventricular pulse pressure (RVPP); details: inhaled, comparison, not tested in Example 5

Structure (SMILES): CCCCC[C@H](O)CC[C@@H]1[C@H]2Cc3cccc(OCC(=O)O)c3C[C@H]2C[C@H]1O [treprostinil]
- Timing of cough ([1]; nebulized): ≤ 10 min
- Threshold dose of inhaled TRE that causes cough [1]: 1.23 µg/kg
- Duration of inhibition of the hypoxia-induced increase in RVPP ([2]; highest dose 215 μg/kg): 2 h
- Duration of inhibition of the hypoxia-induced increase in RVPP ([2]; lower doses 15, 53, or 110 μg/kg): 1 h
